The values below come from patent US12703718B2, “Compositions and compounds for co-delivery of uridine and ketoleucine” (PHARMA CINQ, LLC, priority 2021, dated 2026).

For data set [1], the system named is Female CD-1 mice treated with 3-nitropropionic acid (3-NP). Put plainly: Protective effects in 3-NP mouse model of mitochondrial dysfunction (survival, weight loss). The format is in vivo. The note with it: for Survival at d 8: 3-NP 65 mg/Kg ip daily, survivors/10 mice. The protocol: A combination of uridine triacetate and ketoleucine was assessed in a model of progressive and lethal impairment of mitochondrial oxidative phosphorylation. 3-nitropropionic acid (3-NP), an irreversible inhibitor of Complex II of the mitochondrial electron transport chain. Daily administration of 3-NP results in progressive loss of mitochondrial reserve energy capacity, until the threshold for baseline energy requirements for survival is breached, resulting in mortality from both heart failure and central nervous system dysfunction.
In this study, uridine triacetate was administered as either by gavage as an oral bolus, or by incorporation into rodent chow at a concentration of 4% w/w. Similarly, ketoleucine (in the form of its sodium salt; NaKL) was administered in different groups by gavage or by dissolving it in drinking water. Sodium chloride (NaCl) was used as a control substance in some groups to account for the sodium load from the ketoleucine salt. • Chemical(s): Hydroxypropyl methyl cellulose (HPMC), cat #H3785, Lot #SLBS5701, CAS 9004-65-3, SIGMA-Aldrich. Uridine Triacetate for gavage (UTA), item, D000156, Lot #Q000001095, Almac Sciences, Uridine Triacetate in the diet (UTA), item & Lot #, D000302, 2148-070, Project #1314A0071A, recovery of material from R-104 Lot Q000003578, Almac Sciences, Sodium Chloride (NaCl), VWR, Cat #BDH9286-500G, Lot #1976C500, CAS 7647-14-5, 4-methyl-2-oxovaleric acid sodium salt (ketoLeucine: NaKL), cat #M326425, Lot #1-AWT-36-1, CAS4502-00-5, Toronto Research Chemicals, and 3-nitropropionic acid (3NP), cat #N5636, Lot #11101616, CAS 504-88-1, SIGMA-Aldrich. • Vehicle(s): UTA, NaKL, or NaCl in suspensions was prepared in 0.75% HPMC. NaCL or NaKL in the drinking water were prepared by dissolving in water. 3-NP solutions were prepared in water. • Dosing Formulation(s): Preparation: UTA was suspended in 0.75% HPMC at 50 mg/ml. NaKL will be suspended in 0.75% HPMC at 100 mg/ml, or included in the drinking water at 15.8 mg/ml. […]

For data set [2] the following is noted: oral; cited from earlier work.
The conditions of data set [3]: oral, mice; cited from earlier work.
For data set [4] the following is noted: oral, humans; cited from earlier work.

Like-named read-outs stand apart in the source and are kept apart here.

Take `CC(=O)OC[C@H]1O[C@@H](n2ccc(=O)[nH]c2=O)[C@H](OC(C)=O)[C@@H]1OC(C)=O` [UTA, 2′,3′,5,-tri-O-acetyluridine]: the “Survival at d 8” value in data set [1] (Group 1: 4% UTA diet, NaCl in drinking water, no gavage) is 0/10; in data set [1] (Group 3: normal chow, regular water, UTA 1000 mg/Kg and NaCl by gavage 7 AM and 4 PM) it was 1/10. Besides, in data set [1] (bolus (gavage) uridine triacetate with or without NaKL (Groups 3-5) versus 4% (w/w) uridine triacetate in chow (Groups 1 and 2)), the “Protection against weight loss, comparison between groups” value is “better protection against weight loss”. For the same compound, in data set [2], the bioavailability entry is given as “approximately 50%”.
As to `O=c1ccn([C@@H]2O[C@H](CO)[C@@H](O)[C@H]2O)c(=O)[nH]1` [uridine], the bioavailability result in data set [3] and in data set [4] was “approximately 7%” in each case.
